Results taken from US8586611B2 (priority 2005, dated 2013).
Where two headings read alike, the source gives them in different places.

Tests used:
Assay type in all cases: in vivo
Phytophthora infestans [1] = assay: whole plant or invertebrate; conditions: for Test D disease rating (100 = 100% disease control, 0 = no disease control): tomato late blight
Phytophthora infestans [2] = assay: whole plant or invertebrate; conditions: for Test C disease rating (100 = 100% disease control, 0 = no disease control): tomato late blight
[3] = tested on: Erysiphe graminis f. sp. tritici; assay: Test E: wheat powdery mildew, spray the day before inoculation (disease rating, 100 = 100% disease control)
Text: (§1) The test compounds were first dissolved in acetone in an amount equal to 3% of the final volume and then suspended at the desired concentration (in ppm) in acetone and purified water (50/50 mix by volume) containing 250 ppm of the surfactant Trem® 014 (polyhydric alcohol esters). The resulting test suspensions were then used in tests A-E. Spraying a 200 ppm test suspension to the point of run-off on the test plants was the equivalent of a rate of 500 g/ha.
The test suspension was sprayed to the point of run-off on wheat seedlings. The following day the seedlings were inoculated with a spore dust of Erysiphe graminis f. sp. tritici, (the causal agent of wheat powdery mildew) and incubated in a growth chamber at 20° C. for 7 days, after which disease ratings were made.
(§2) Results for Tests A-F are given in Table A. In the table, a rating of 100 indicates 100% disease control and a rating of 0 indicates no disease control (relative to the controls). A dash (-) indicates no test results.

Plasmopara viticola = assay: Test B: grape downy mildew, spray 24 h after inoculation (disease rating, 100 = 100% disease control)
Text: as §1
Grape seedlings were inoculated with a spore suspension of Plasmopara viticola (the causal agent of grape downy mildew) and incubated in a saturated atmosphere at 20° C. for 24 h. After a short drying period, the test suspension was sprayed to the point of run-off on the grape seedlings and then moved to a growth chamber at 20° C. for 5 days, after which the test units were placed back into a saturated atmosphere at 20° C. for 24 h. Upon removal, disease ratings were made.
as §2

[4] = Phytophthora infestans, in Solanum lycopersicum, topical, 96 h, read-out: Test D disease rating (100 = 100% disease control, 0 = no disease control)
[5] = Phytophthora infestans, in Solanum lycopersicum, 144 h, read-out: Test C disease rating (100 = 100% disease control, 0 = no disease control)
[6] = Blumeria graminis, topical, 168 h, spray the day before inoculation, tested at 40 ppm, read-out: Test E disease rating (100 = 100% disease control, 0 = no disease control)
[7] = Plasmopara viticola, 144 h, spray 24 h after inoculation, tested at 40 ppm, read-out: Test B disease rating (100 = 100% disease control, 0 = no disease control)
[8] = spray the day before inoculation, tested at 40 ppm
[9] = spray 17 h after inoculation, compounds without asterisk (not 40 or 10 ppm)
[10] = spray the day before inoculation, compounds without asterisk (not 40 or 10 ppm)
[11] = spray 24 h after inoculation, compounds without asterisk (not 40 or 10 ppm)

Row | SMILES | pest or weed control at 40 ppm (Phytophthora infestans [1]; [4]) | pest or weed control at 40 ppm (Phytophthora infestans [2]; [5]) | pest or weed control at 40 ppm [3, 6] | pest or weed control at 40 ppm (Plasmopara viticola; [7]) | further results
1 | CC[C@H](c1ccccc1)N(C)C(=O)c1coc(C2CCN(C(=O)Cn3nc(C(F)(F)F)cc3C)CC2)n1 [Compound 152, N-methyl-2-[1-[[5-methyl-3-(trifluoromethyl)-1H-pyrazol-1-yl]acetyl]-4-piperidinyl]-N-[(1R)-1-phenylpropyl]-4-oxazolecarboxamide] | 99% | 100% | 0% | 99% | –
2 | Cc1ccc(C)c(CC(=O)N2CCC(c3nc(C(=O)N(C)[C@@H]4CCCc5ccccc54)co3)CC2)c1 [Compound 153, 2-[1-[(2,5-dimethylphenyl)acetyl]-4-piperidinyl]-N-methyl-N-[(1R)-1,2,3,4-tetrahydro-1-naphthalenyl]-4-oxazolecarboxamide] | 98% | 100% | 0% | 99% | –
3 | CC[C@H](c1ccccc1)N(C)C(=O)c1coc(C2CCN(C(=O)Cc3cc(C)ccc3C)CC2)n1 [Compound 154, 2-[1-[(2,5-dimethylphenyl)acetyl]-4-piperidinyl]-N-methyl-N-[(1R)-1-phenylpropyl]-4-oxazolecarboxamide] | 68% | 100% | 0% | 99% | –
4 | Cc1cc(C(F)(F)F)nn1CC(=O)N1CCC(c2nc(C(=O)N(C)C3CCC(=O)c4ccccc43)cs2)CC1 (centres unmarked) [Compound 211, N-methyl-2-[1-[[5-methyl-3-(trifluoromethyl)-1H-pyrazol-1-yl]acetyl]-4-piperidinyl]-N-(1,2,3,4-tetrahydro-4-oxo-1-naphthalenyl)-4-thiazolecarboxamide] | 99% | 100% | 0% | 99% | –
5 | Cc1cc(C(F)(F)F)nn1CC(=O)N1CC=C(c2nc(C(=O)N(C)[C@@H]3CCCc4ccccc43)cs2)CC1 [Compound 218, N-methyl-2-[1,2,3,6-tetrahydro-1-[[5-methyl-3-(trifluoromethyl)-1H-pyrazol-1-yl]acetyl]-4-pyridinyl]-N-[(1R)-1,2,3,4-tetrahydro-1-naphthalenyl]-4-thiazolecarboxamide] | 99% | 100% | 0% | 91% | –
6 | Cc1cc(C(F)(F)F)nn1CC(=O)N1CCN(c2nc(C(=O)N(C)[C@@H]3CCCc4ccccc43)cs2)CC1 [Compound 220, N-methyl-2-[4-[[5-methyl-3-(trifluoromethyl)-1H-pyrazol-1-yl]acetyl]-1-piperazinyl]-N-[(1R)-1,2,3,4-tetrahydro-1-naphthalenyl]-4-thiazolecarboxamide] | 98% | 100% | 0% | 95% | –
7 | Cc1cc(C(F)(F)F)nn1CC(=O)N1CCC(c2nc(C(=O)N(C)C3c4ccccc4CC3(C)C)cs2)CC1 (centres unmarked) [Compound 222, N-(2,3-dihydro-2,2-dimethyl-1H-inden-1-yl)-N-methyl-2-[1-[[5-methyl-3-(trifluoromethyl)-1H-pyrazol-1-yl]acetyl]-4-piperidinyl]-4-thiazolecarboxamide] | 99% | 100% | 0% | 100% | –
8 | Cc1cc(C(F)(F)F)nn1CC(=O)N1CCC(c2nc(C(=O)N(C)C3c4ccccc4CC3C)cs2)CC1 (centres unmarked) [Compound 226, N-(2,3-dihydro-2-methyl-1H-inden-1-yl)-N-methyl-2-[1-[[5-methyl-3-(trifluoromethyl)-1H-pyrazol-1-yl]acetyl]-4-piperidinyl]-4-thiazolecarboxamide] | 99% | 100% | 0% | 100% | –
9 | Cc1cc(C(F)(F)F)nn1CC(=O)N1CCC(n2cc(C(=O)N(C)[C@@H]3CCCc4ccccc43)cn2)CC1 [Compound 233, N-methyl-1-[1-[[5-methyl-3-(trifluoromethyl)-1H-pyrazol-1-yl]acetyl]-4-piperidinyl]-N-[(1R)-1,2,3,4-tetrahydro-1-naphthalenyl]-1H-pyrazole-4-carboxamide] | 99% | 100% | 0% | 99% | –
10 | CN(C(=O)c1csc(C2CCN(C(=O)Cn3nc(Cl)cc3Cl)CC2)n1)[C@@H]1CCCc2ccccc21 [Compound 238, 2-[1-[(3,5-dichloro-1H-pyrazol-1-yl)acetyl]-4-piperidinyl]-N-methyl-N-[(1R)-1,2,3,4-tetrahydro-1-naphthalenyl]-4-thiazolecarboxamide] | – | – | – | – | pest or weed control at 10 ppm (Phytophthora infestans [1]; [4]): 99%; pest or weed control at 10 ppm (Phytophthora infestans [2]; [5]): 100%; pest or weed control at 10 ppm ([3]; Blumeria graminis, topical, 168 h, spray the day before inoculation, tested at 10 ppm, read-out: Test E disease rating (100 = 100% disease control, 0 = no disease control)): 0%; pest or weed control at 10 ppm (Plasmopara viticola; Plasmopara viticola, 144 h, spray 24 h after inoculation, tested at 10 ppm, read-out: Test B disease rating (100 = 100% disease control, 0 = no disease control)): 100%
11 | CN(C(=O)c1csc(C2CCN(C(=O)Cn3nc(C(F)(F)F)cc3Cl)CC2)n1)[C@@H]1CCCc2ccccc21 [Compound 249, 2-[1-[[5-chloro-3-(trifluoromethyl)-1H-pyrazol-1-yl]acetyl]-4-piperidinyl]-N-methyl-N-[(1R)-1,2,3,4-tetrahydro-1-naphthalenyl]-4-thiazolecarboxamide] | 99% | 100% | 0% | 100% | –
12 | Cc1cc(C(F)(F)F)nn1CC(=O)N1CCC(c2nc(C(=S)N(C)[C@@H]3CCCc4ccccc43)cs2)CC1 [Compound 289, N-methyl-2-[1-[[5-methyl-3-(trifluoromethyl)-1H-pyrazol-1-yl]acetyl]-4-piperidinyl]-N-[(1R)-1,2,3,4-tetrahydro-1-naphthalenyl]-4-thiazolecarbothioamide] | – | – | – | – | Test D disease rating (100 = 100% disease control, 0 = no disease control) (Phytophthora infestans [1]; sprayed 17 h after inoculation, tested at 40 ppm (*)): 99; Test C disease rating (100 = 100% disease control, 0 = no disease control) (Phytophthora infestans [2]; sprayed the day before inoculation, tested at 40 ppm (*)): 100; Test E disease rating (100 = 100% disease control, 0 = no disease control) ([3]; sprayed the day before inoculation, 7 days at 20° C., tested at 40 ppm (*)): 65; Test B disease rating (100 = 100% disease control, 0 = no disease control) (Plasmopara viticola; sprayed 24 h after inoculation, tested at 40 ppm (*)): 100
13 | Cc1cc(C(F)(F)F)nn1CC(=O)N1C=CC(c2nc(C(=O)N(C)[C@@H]3CCCc4ccccc43)cs2)CC1 (stereo partly drawn) [Compound 315, N-methyl-2-[1,2,3,4-tetrahydro-1-[[5-methyl-3-(trifluoromethyl)-1H-pyrazol-1-yl]acetyl]-4-pyridinyl]-N-[(1R)-1,2,3,4-tetrahydro-1-naphthalenyl]-4-thiazolecarboxamide] | – | – | – | – | Test D disease rating (100 = 100% disease control, 0 = no disease control) (Phytophthora infestans [1]; sprayed 17 h after inoculation, tested at 10 ppm (**)): 88; Test C disease rating (100 = 100% disease control, 0 = no disease control) (Phytophthora infestans [2]; sprayed the day before inoculation, tested at 10 ppm (**)): 100; Test E disease rating (100 = 100% disease control, 0 = no disease control) ([3]; sprayed the day before inoculation, 7 days at 20° C., tested at 10 ppm (**)): 0; Test B disease rating (100 = 100% disease control, 0 = no disease control) (Plasmopara viticola; sprayed 24 h after inoculation, tested at 10 ppm (**)): 72
14 | C[C@H](c1ccccc1)N(C)C(=O)c1csc(C2CCN(C(=O)Cc3cccc(F)c3F)CC2)n1 [compound 46] | – | – | – | – | Test D disease rating (100 = 100% disease control, 0 = no disease control) (Phytophthora infestans [1]; spray 17 h after inoculation, tested at 40 ppm): 0%; Test C disease rating (100 = 100% disease control, 0 = no disease control) (Phytophthora infestans [2]; [8]): 0%; Test E disease rating (100 = 100% disease control, 0 = no disease control) [3, 8]: 0%; Test B disease rating (100 = 100% disease control, 0 = no disease control) (Plasmopara viticola; spray 24 h after inoculation, tested at 40 ppm): 0%
15 | COc1ccccc1CC(=O)N1CCN(c2nc(C(=O)N(C)[C@H](C)c3ccccc3)co2)CC1 [compound 53] | – | – | – | – | Test D disease rating (100 = 100% disease control, 0 = no disease control) (Phytophthora infestans [1]; [9]): 89%; Test C disease rating (100 = 100% disease control, 0 = no disease control) (Phytophthora infestans [2]; [10]): 100%; Test E disease rating (100 = 100% disease control, 0 = no disease control) [3, 10]: 0%; Test B disease rating (100 = 100% disease control, 0 = no disease control) (Plasmopara viticola; [11]): 20%
16 | Cc1ccc(C)c(CC(=O)N2CCC(c3nc(C(=O)N(C)[C@H](C)c4cccc(C(F)(F)F)c4)cs3)CC2)c1 [compound 56] | – | – | – | – | Test D disease rating (100 = 100% disease control, 0 = no disease control) (Phytophthora infestans [1]; [9]): 0%; Test C disease rating (100 = 100% disease control, 0 = no disease control) (Phytophthora infestans [2]; [10]): 93%; Test E disease rating (100 = 100% disease control, 0 = no disease control) [3, 10]: 0%; Test B disease rating (100 = 100% disease control, 0 = no disease control) (Plasmopara viticola; [11]): 31%
17 | Cc1cccc(CC(=O)N2CCC(c3nc(C(=O)N(C)C(C)c4ncc(Cl)cc4Cl)cs3)CC2)c1 (centres unmarked) [compound 61] | – | – | – | – | Test D disease rating (100 = 100% disease control, 0 = no disease control) (Phytophthora infestans [1]; [9]): 0%; Test C disease rating (100 = 100% disease control, 0 = no disease control) (Phytophthora infestans [2]; [10]): 69%; Test E disease rating (100 = 100% disease control, 0 = no disease control) [3, 10]: 0%; Test B disease rating (100 = 100% disease control, 0 = no disease control) (Plasmopara viticola; [11]): 2%
